Reference: PubChem BioAssay (NCI)
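Five compound concentrations were applied to cells in 96-well plates for 48 hours; endpoints were derived by simple linear interpolation of the resulting dose-response curve. The concentration for 50% growth inhibition is given as GI50. TGI: total growth inhibition.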

Experiments:
Test in all cases: growth of human tumour cells (NCI), 48 h
[1] = system: HT29 colon
[2] = system: MOLT-4 leukemia
[3] = system: OVCAR-3 ovarian
[4] = system: PC-3 prostate
[5] = system: RPMI-8226 leukemia
[6] = system: SF-268 CNS
[7] = system: SF-295 CNS
[8] = system: SK-MEL-2 melanoma
[9] = system: SK-MEL-5 melanoma
[10] = system: SR leukemia

SMILES	GI50 [1] [µM]	TGI [1] [µM]	GI50 [2] [µM]	TGI [2] [µM]	GI50 [3] [µM]	TGI [3] [µM]	GI50 [4] [µM]	TGI [4] [µM]	GI50 [5] [µM]	TGI [5] [µM]	GI50 [6] [µM]	TGI [6] [µM]	GI50 [7] [µM]	TGI [7] [µM]	GI50 [8] [µM]	TGI [8] [µM]	TGI [9] [µM]	TGI [10] [µM]	GI50 [9] [µM]	GI50 [10] [µM]
O=C1c2ccn(CCCNC(CO)(CO)CO)c2C(=O)c2c1c(O)c1ccccc1c2O	15.4	> 46.3	2.54	> 37.2	6.71	21.6	14.6	35.8	22.3	> 69.7	24.2	> 100	15	> 49.8	23.1	68.8	0.588	–	–	–
CCCCCN(CCCCC)C(=O)[C@H](CCC(=O)O)NC(=O)c1cc2ccccc2[nH]1	–	> 100	–	64.4	–	> 100	–	–	–	54.8	–	> 100	–	> 100	–	> 100	–	–	–	–
C=C(C)C1CCC2=CC(CC3(C)OC3C3=CC(C(=O)OC)=C(C1)O3)OC2=O (stereo unspecified)	–	> 100	–	> 100	–	> 100	–	> 100	–	–	–	> 100	–	> 100	–	> 100	> 100	> 100	–	–
N#CC(C(=N/O)/C(=N\O)C(C#N)c1ccccc1)c1ccccc1 (stereo unspecified)	–	> 100	–	> 100	–	> 100	–	–	–	> 100	–	> 100	–	> 100	–	> 100	> 100	–	–	–
CCn1cc(C(=O)N/N=C/c2cccs2)c(=O)c2cc(F)c(N3CCNC(C)C3)c(F)c21 (stereo unspecified)	1.67	3.12	–	–	1.8	3.35	1.45	2.84	–	–	1.73	3.44	1.85	3.45	1.96	3.95	3.19	–	1.78	–
O=C1C(Cl)=C(Cl)C(=O)N1c1cccc(C(F)(F)F)c1	–	> 100	–	> 86.6	–	> 100	–	–	–	> 100	–	> 100	–	> 100	–	> 100	> 100	> 100	–	–
Cc1cc(-c2nc3n(c2/C=N/N=C(N)N)CCS3)c(C)s1	17.4	37.6	30.1	> 100	21.9	36.3	13.1	27.7	14	30.7	19.1	35.5	15.6	29	–	–	29.9	–	16.3	–
CC1=CC(C)(C)Nc2ccc(Cc3ccc4c(c3)C(C)=CC(C)(C)N4)cc21	12.2	> 100	4.86	54	6.4	21.3	4.26	> 100	2.02	23.5	16.6	> 100	9.78	> 100	12.5	40.6	22	–	9.05	–
O=[N+]([O-])c1ccc(C2SCc3nc4ccccc4n32)cc1 (stereo unspecified)	–	> 100	–	> 100	–	–	–	–	–	–	–	> 100	–	> 100	–	> 100	39.2	> 100	–	–
CCC[CH2][Sn]([CH2]CCC)([O]C(=O)c1cc(F)ccc1F)[O]C(=O)c1cc(F)ccc1F	1.68	3.17	0.347	2.01	1.33	2.61	–	–	–	–	1.14	2.37	1.77	3.17	0.649	1.87	2.91	8.74	1.57	0.502
COc1cc2c3c(n([C@@H]4CCOC4)c(=O)c2cc1OC)-c1cc2c(cc1C3=O)OCO2	0.0141	> 100	< 0.01	> 100	–	–	–	–	0.0127	> 100	< 0.01	> 100	< 0.01	0.0219	–	–	–	–	–	–
Cc1ccc(C)c(NC(=O)C(=O)C2C(=O)N(c3ccccc3)N=C2N)c1 (stereo unspecified)	–	> 100	–	> 100	–	> 100	–	–	–	> 100	–	> 100	–	> 100	–	> 100	> 100	–	–	–
O=C1NC2C3CC(OCc4ccccc4)(OCc4ccccc4)C2OC3O1 (stereo unspecified)	–	> 50	–	> 50	–	> 50	–	–	–	> 50	–	> 50	–	> 50	–	> 50	> 50	–	–	–
O=C(O)/C(Cl)=C(Cl)/C=N/NC(=O)c1cc2ccccc2cc1O	–	> 100	–	34.9	–	> 100	–	–	–	> 100	–	> 100	–	> 100	–	79.3	24.6	39.3	–	–
Cc1cc(Cl)ccc1N=C1NC(=O)C(CC(=O)Nc2cccc(C)c2C)S1 (stereo unspecified)	–	> 100	–	> 100	–	> 100	–	–	–	64.2	–	> 100	–	81.2	–	46.9	41.4	–	–	–
COC(=O)c1ccc(C(=O)OC)c2nc3cc(Cl)ccc3nc12	–	> 100	–	> 100	–	> 100	–	–	–	> 100	–	> 100	–	> 100	–	> 100	> 100	–	–	–
O=c1cc(-c2ccccc2)oc2cc(OCCCCCN3CCOCC3)cc(O)c12	40.3	> 100	99.7	> 100	> 100	> 100	54.1	> 100	62.3	> 100	75.9	> 100	40.2	> 100	25.4	91.7	> 100	–	> 100	–
O=C(COC(=O)c1cccc2c(=O)c3ccccc3[nH]c12)Nc1ccc(Cl)cc1	–	> 100	–	> 100	–	> 100	–	–	–	–	–	> 100	–	> 100	–	–	> 100	> 100	–	–
CCOC(=O)/C(C#N)=C\Sc1ccccc1	–	84.4	–	67.3	–	39.2	–	–	–	> 100	–	28.9	–	48.5	–	74.3	> 100	45.2	–	–
